# Experiments:
# [1] = system: p210-transformed FDC-P1 cells; experiment: Proliferation of p210 bcr/abl-transformed FDC-P1 myeloid cells; assay type: cell-based, murine
# Procedure: (§1) (The p210 bcr/abl oncogene is carried on a helper-free retrovirus referred to as "p210.") FDC-P1 myeloid cells are an immature cell line from myeloid lineage derived from mouse bone marrow (Dexter, TM, J. Exp. Med. 152: 1036-1047, 1980).
# [2] = system: bcr/abl-induced leukemia in mice; experiment: bcr/abl-induced leukemia in mice fed perillyl alcohol diet; assay type: in vivo, mouse; conditions: diet containing 2% perillyl alcohol
# From the text: Experiments were done in which the non-malignant mouse bone marrow cell line, FDC-P1, was transformed with a retrovirus engineered to express the p210 bcr/abl oncogene. As described above, the bcr/abl oncogene plays a major role in the development of human Philadelphia chromosome (Ph) positive leukemias. Therefore, this mouse system represents a model of Ph^+ human leukemia. Injection of syngeneic animals with the bcr/abl transformed FDC-P1 cells induces lethal hematopoietic malignancy in which all animals had died within 30 days post-injection (absent perillyl alcohol).
# Animals were fed either a control diet or a diet containing 2% perillyl alcohol and were challenged with either 3×10^5 or 3×10^6 bcr/abl-transformed cells. All animals on the control diet died by day 26.
# [3] = system: nontransformed FDC-P1 cells; experiment: Proliferation of nontransformed FDC-P1 myeloid cells; assay type: cell-based, murine; conditions: Mus musculus, FDC-P1, read-out: inhibition of cell growth
# Procedure: as §1
# [4] = system: human cancer cell lines; experiment: Growth of human cancer cell lines (NCI Developmental Therapeutics Program); assay type: cell-based
# Procedure: Various concentrations of perillyl alcohol inhibited the growth of a number of human cancer cell lines. FIG. 5A-G is a set of diagrams showing the effects of perillyl alcohol on different cancer cell lines. These experiments were conducted by the National Cancer Institute Developmental Therapeutics Program.
# [5] = system: DMBA-induced rat mammary carcinomas; experiment: Pair-feeding study: regression and inhibition of DMBA-induced mammary carcinomas in rats; assay type: in vivo, Wistar-Furth female rats
# Procedure: We used Wistar-Furth female rats for in vivo studies. Wistar-Furth female rats were obtained from Harlan Sprague-Dawley, Inc., (Madison, Wis.). […] Rates were provided Teklad Lab blox chow and acidified water ad libitum.
# The DMBA was dissolved in a stock solution of 20 mg DMBA/ml sesame oil, heated and allowed to cool to room temperature before administration. DMBA (Eastman Kodak, Rochester, N.Y.) was given as a single gastric intubation of 50 mg DMBA/kg rat body weight.
# In the pair-feeding study, a group of 70 mammals was treated with DMBA. Beginning four weeks post-carcinogen administration, mammals were weighed and palpated weekly.
# Fresh diets were make every 7-10 days. All mammals were provided fresh diet daily to minimize evaporation of the monoterpenes.
# In a pair-feeding study, all palpable mammary tumors were classified as either "primary" tumors (i.e., the first tumor(s) palpated with a minimum diameter of 3 mm) or "secondary" tumors (i.e. a palpable tumor arising after initial diet assignment). […] All carcinogen-exposed mammals not bearing a first palpable tumor by week 15 post-carcinogen were removed from the experiment. Complete regression of a tumor was defined as non-palpability for a minimum of three consecutive weeks. All mammals in the pair-feeding study were followed for a minimum of 10 weeks post-diet assignment for tumor growth or regression at primary tumor sites and all other mammary glands. The rats were necropsied if moribund. Complete necropsies were performed on all rats at the termination of the study.
# [6] = system: p210 transformed FDC-P1 cells (F-p210.1); experiment: Cell cycle distribution of p210-transformed FDC-P1 cells; assay type: cell-based, murine; conditions: for Cell cycle distribution (% > GO /G1): untreated control 53; for arrest at the G0/G1 stage: 500 μM
# Procedure: Table 3 tabulates the effect of P-OH on cell cycle distribution of nontransformed and p210 transformed FDC-P1 cells.
# ^1 Cells were plated at 2.5 × 10^5 per ml in duplicate well
# of a 24well plate in the presence of 10% WEHI3-conditioned media as a
# source of IL3 and with the indicated concentration of P--OH. After 24
# hours, the cells were fixed in ethanol, permeabilized and stained with
# propidium iodide, then analyzed for DNA content by flow cytometry.
# ^2 FDCP1 = nontransformed cells, Fp210.1 = 210transformed FDCP1 cells
# [7] = system: isoprenylation of 21-26 kDa proteins in NIH3T3 (mouse embryo) cells; experiment: Protein isoprenylation in NIH3T3 cells (21-26 kDa bands, SDS-PAGE fluorography); assay type: cell-based; parameters: Relative activity (inhibition of isoprenylation of 21-26 kDa proteins): key to the marks not given beside the values; conditions: Experiment 2; 1 mM
# Procedure: NIH3T3 (mouse embryo) cells were obtained from the American Type Culture Collection and were grown in Dulbecco's modified Eagle's medium supplemented with 10% calf serum. […] Because they carried a radioactive label, isoprenylated proteins were visualized by fluorography. As a control, cells were incubated without the monoterpene. […] Whole cell extracts were analyzed by SDS-PAGE on 16-cm×18-cm×0.75-mm gels by the method of Laemmli (supra). […] Gels were stained with Coomassie Brilliant Blue, equilibrated for 20 minutes in Amplify (Amersham Corp.) fluorographic reagent, dried under vacuum at 65° C., and exposed to […] Some fluorograms were analyzed further by densitometry. […] Protein content was measured by the method of Lowry, et al. […] FIG. 1 depicts the structures of these monoterpenes.
# [8] = system: M600B cells; experiment: Inhibition of M600B cell growth; assay type: cell-based, human; conditions: FIG. 4
# Procedure: NIH3T3 (mouse embryo) cells were obtained from the American Type Culture Collection and were grown in Dulbecco's modified Eagle's medium supplemented with 10% calf serum. M600B immortalized human mammary epithelial cells (Stampfer, M. R., 1985, J. Tissue Culture Methods 9: 107-115) were obtained from Dr. Martha Stampfer and were grown in supplemented HCDB 170 medium (Hammond, et al. (1984) Proc. Natl. Acad. Sci U.S.A. 81: 5435-5439), as described previously (Stampfer, et al. (1985) Proc. Natl. Acad. Sci U.S.A. 82: 2394-2398; Eldridge, et al. (1989) Cancer Res. 49: 4326-4331).
# All cells were maintained in 100-mm dishes at 37° C. in a humidified 5% CO2 atmosphere. Viable cells were distinguished from nonviable cells by counting azure II/methylene blue-stained colonies 10 days after the cells were plated at a density of 100 cells per dish. Trypan blue exclusion was measured by incubating cells for 1 minute with one drop of trypan blue per 10 ml of cells. Viable (colorless) and nonviable (blue) cells were then counted on a hemocytometer.
# Additionally, growth of HT29 (human colon adenocarcinoma) cells was inhibited by 80% by 1 mM perillyl alcohol.
compound,measurement,setting,value
C=C(C)[C@@H]1CC=C(CO)CC1 [perillyl alcohol],"growth inhibition, transformed versus nontransformed cells","[1]; 100-800 μM, FIG. 9B",significantly more inhibitory for the growth of p210-transformed FDC-P1 cells compared to nontransformed FDC-P1 cells
same,growth-inhibitory curve with added IL-3,[1]; IL-3 added,significantly shifted upward
same,inhibition at 400 µM,"[1]; Mus musculus, FDC-P1, read-out: inhibition of growth",> 80%
same,reversion of autonomously growing malignant cells,[1]; conclusion from in vitro results,"reverts autonomously growing malignant cells to a factor-dependent, apoptosis-sensitive state"
same,animals surviving longer than control animals,"[2]; 3×10^5 or 3×10^6 cells, controls all died by day 26",about 20%
same,diet acceptance,[2]; most mice,most mice resisted the perillyl alcohol diet
same,inhibition at 400 µM,[3],< 15%
same,inhibition of cell growth,[4]; variety of human cancer cell types including leukemia cells (FIG. 5A),inhibition of cell growth
same,inhibition of cancer cell growth,"[4]; various concentrations, FIG. 5A-G, all lines",inhibited cancer cell growth
same,development of secondary tumors,[5]; 2.5% perillyl alcohol diet,inhibited the development of secondary tumors
same,Primary Tumor Regression (tumors regressed / tumors),"[5]; 2.5% perillyl alcohol diet, complete regression, pair-fed control 9/29, listed as POH",22/27
same,Primary Tumor Regression (%),"[5]; 2.5% perillyl alcohol diet, complete regression, pair-fed control 31%",81%
same,Number of Secondary Tumors/Rat,"[5]; 2.5% perillyl alcohol diet, pair-fed control 1.62",0.04
same,Time to Regress,"[5]; 2.5% perillyl alcohol diet, pair-fed control 5.6, listed as POH",3.6 ± 0.3 wks
same,Secondary Tumor Regression (tumors regressed / tumors),"[5]; 2.5% perillyl alcohol diet, pair-fed control 11/42",0/1
same,Secondary Tumor Regression (%),"[5]; 2.5% perillyl alcohol diet, pair-fed control 26%",0%
same,secondary tumors / mammals,"[5]; 2.5% perillyl alcohol diet, pair-fed control 42/26",1/26
same,amount of perillyl alcohol needed relative to the amount of limonene,[5]; 2.5% perillyl alcohol versus 10% limonene diet,25%
same,time for a primary tumor to regress to a non-palpable mass,[5]; perillyl alcohol-treated group versus pair-fed controls,shorter than the time for spontaneous regression in the pair-fed controls
same,Cell cycle distribution (% > GO /G1),"[6]; 100 μM P--OH, 24 hours",53%
same,apoptosis,"[6]; 500 μM P--OH, 24 hours",Significant apoptosis
same,Cell cycle distribution (% > GO /G1),"[6]; 500 μM P--OH, 24 hours",16%
same,arrest at the G0/G1 stage,[6]; 24 hours,almost completely arrested at the G0 /G1 stage
same,arrest at the G0/G1 stage,"[6]; 24 hours, listed as P--OH",entirely in the G0 /G1 stage of the cell cycle
same,morphological changes,[6]; up to 500 μM,morphological changes suggestive of apoptotic cell death
same,Relative activity (inhibition of isoprenylation of 21-26 kDa proteins),[7],+++++
same,inhibition of cell growth,[8],significantly inhibited cell growth in a dose-dependent manner

# Reference: patent US5587402A, “Regression of mammalian leukemia cell tumors” (priority 1995, dated 1996)
